Measured values: patent US7914830B2, “Composition for inhibiting thrombosis” (Taiyo Kagaku Co., Ltd, priority 2003, dated 2011)

What was measured:
[1] = system: platelet poor plasma (PPP) separated from human blood; assay: APTT anti-coagulant activity of carrageenan antithrombotic agents (Test Example G-1); type: biochemical; conditions: for Anti-Coagulant Activity: relative to water control
Method: The anti-coagulant activity of the antithrombotic agent of the present invention was assayed with a coagulometer (manufactured by SYSMEX CORPORATION) utilizing platelet poor plasma (PPP) separated from human blood.
Ten microliters of a sample, 25 microliters of an APTT reagent (manufactured by INTERNATIONAL REAGENTS CORPORATION), and 25 microliters of 10% cephalin were placed into a reaction cuvette to react the components at 37° C. for 3 minutes, and 50 microliters of PPP was placed in the reaction cuvette to react the components for 2 minutes. Finally, 50 microliters of 25 millimolar calcium chloride was added to coagulate the mixture obtained. The time period (second) by which plasma was coagulated was measured, and defined as APTT.
Here, water was used as the control, and the APTT was measured in the same manner. The anti-coagulant activity (%) was calculated from the measured APTT of the sample, relative to that of the control according to the following numerical formula. Anti-Coagulant Activity(%)=((APTT of Sample−APTT of Control)/APTT of Control)×100 […]

[2] = system: platelet poor plasma (PPP) separated from human blood; assay: APTT and heparin-like activity, hibiscus anti-blood coagulant compositions (Test Examples C-1 to C-3); type: biochemical
Method: Ten microliters of heparin adjusted to a concentration of 0.05, 0.1, 0.2 or 0.4 U/mL and 40 μL of platelet poor plasma (PPP) separated from human blood were placed in a reaction cuvette, and the components were reacted at 37° C. for 1 minute. Thereafter, 50 μL of an APTT reagent (manufactured by INTERNATIONAL REAGENTS CORPORATION) was added thereto to further react at 37° C. for 2 minutes, and 50 μL of 25 mM calcium chloride was then added. The time period by which plasma was coagulated (APTT; second) was measured with a coagulometer (manufactured by SYSMEX CORPORATION). In order to evaluate the anti-blood coagulant effect of the anti-blood coagulant composition of the present invention, a calculation formula for the heparin-like activity value (U/mg) was obtained from the relationship between the heparin concentration and the APTT of heparin.
Thereafter, 50 μL of an APTT reagent (manufactured by INTERNATIONAL REAGENTS CORPORATION) was added to further react the components at 37° C. for 2 minutes.

[3] = system: platelet rich plasma of a normal individual; assay: Prothrombin time (PT), anti-extrinsic blood coagulant activity, Hizikia fusiforme (Test Examples F-1, F-2); type: biochemical, human
Method: The anti-extrinsic blood coagulant activity of the extrinsic blood coagulation preventing composition of the present invention was obtained as follows: Ten microliters of a sample of a heparin test solution adjusted by […] rich plasma of a normal individual using a coagulometer (manufactured by SYSMEX CORPORATION) to react the components at 37° C. for 1 minute. Thereafter, 100 μL of a PT reagent (manufactured by INTERNATIONAL REAGENTS CORPORATION) was added thereto, and the time period by which plasma was coagulated was measured, i.e. PT was measured. From the relationship between the concentration of this heparin test solution and the PT, the following numerical formula for a heparin-like activity value (U/mg) was obtained.
Thereafter, a sample was prepared by diluting the extrinsic blood coagulation preventing composition A of the present invention with distilled water so as to have a concentration of 0.078, 0.156, 0.313, 0.625 or 1.25 mg/mL calculated as a solid content. The PT was measured in the same manner and the resultant value was plugged into the above numerical formula to give a heparin-like activity value relative to heparin (1 U/mL) at each sample concentration.
In addition, a PT ratio was calculated at each sample concentration according to the following equation using a heparin test solution concentration of 0 mg/mL as the control. PT Ratio=PT When Adding Sample/PT of Control(Heparin Test Solution Concentration:0 mg/mL)
The PTs were determined for the extrinsic blood coagulation preventing composition A obtained in Example F-1, the extrinsic blood coagulation preventing compositions B, C, D and E obtained in Example F-2, and the extrinsic blood coagulation preventing composition F obtained in Example F-3 at a concentration of 0.2 mg/mL calculated as a solid content. Thereafter, the resultant value was plugged into the calculation formula for a heparin-like activity value (U/mg) in Test Example F-1, and the heparin-like activity value and the PT ratio of each extrinsic blood coagulation preventing composition were obtained. In addition, a sample was prepared using the supernatant fraction with 80% ethyl alcohol in Example F-2 in the same manner, and the heparin-like activity value and the PT ratio were obtained.

[4] = system: platelet poor plasma (PPP) separated from human blood; assay: APTT and heparin-like activity, Hizikia fusiforme thrombus preventing compositions (Test Examples F′-1, F′-2); type: biochemical
Method: The thrombus preventing effect of the thrombus preventing composition A of the present invention was evaluated by measuring the APTT with the coagulometer utilizing platelet poor plasma (PPP) separated from human blood.
(§1) Ten microliters of a sample of which amount was adjusted so as to have a concentration of the thrombus preventing composition A of the present invention of 0.075, 0.15, 0.3 or 0.5 mg/mL calculated as a solid content, and 40 μL of PPP were placed in a reaction cuvette to react the components at 37° C. for 1 minute. Thereafter, 50 μL of an APTT reagent (manufactured by INTERNATIONAL REAGENTS CORPORATION) was added to further react the components at 37° C. for 2 minutes, and 50 μL of 25 mM calcium chloride was then added thereto. The time period (seconds) by which plasma was coagulated was measured, and defined as APTT.
Here, as the control, APTT was measured using heparin adjusted to have a concentration of 0.05, 0.1, 0.2 and 0.3 U/mL as a sample in the same manner. The following calculation formula for a heparin-like activity value (U/mg) was obtained from this relationship between the concentration of this heparin and APTT of heparin, and the resultant value was plugged into this calculation formula to give a heparin-like activity value relative to heparin (1 U/mL) at each sample concentration.
The APTTs were measured for the thrombus preventing composition A obtained in Example F′-1, the thrombus preventing compositions B, D and E obtained in Example F′-2, and the thrombus preventing composition F obtained in Example F′-3 at a concentration of 0.2 mg/mL calculated as a solid content in the same manner as in Test Example F′-1. Thereafter, the resultant value was plugged into the calculation formula for the heparin-like activity value (U/mg) in Test Example F′-1 to give a heparin-like activity value of each thrombus preventing composition. In addition, a sample was prepared in the same manner for the supernatant fraction with 80% ethanol in Example F′-2, and its heparin-like activity value was obtained.

[5] = system: platelet poor plasma (PPP) separated from human blood; assay: APTT and heparin-like activity, enzymatically treated Hizikia fusiforme compositions (Test Examples F″-1, F″-2); type: biochemical
Method: The thrombus preventing effect of the composition A for preventing thrombus of the present invention was evaluated by measuring the APTT with a coagulometer (manufactured by SYSMEX CORPORATION) utilizing platelet poor plasma (PPP) separated from human blood.
as §1, with “concentration of 0.075, 0.15,” for “concentration of the thrombus preventing composition A of the present invention of 0.075, 0.15,”, “and 40 μl of PPP” for “and 40 μL of PPP”, “was added thereto to further” for “was added to further”, “time period (second) by which” for “time period (seconds) by which”
Here, as the control, the APTT was measured in the same manner using heparin adjusted to a concentration of 0.05, 0.1, 0.2 or 0.3 U/mL as a sample. The following calculation formula for a heparin-like activity value (U/mg) was obtained from the relationship between the concentration of heparin and the APTT of heparin. The resultant value was plugged into the calculation formula to give a heparin-like activity value relative to heparin (1 U/mL) at each sample concentration.
The APTTs were measured for the composition A for preventing thrombus obtained in Example F″-1, the compositions B and C for preventing thrombus obtained in Example F″-2, and the comparative composition obtained in Comparative Example F″-1 in the same manner as in Test Example F″-1 at a concentration of 0.2 mg/mL calculated as a solid content. Thereafter, the resultant value was plugged into the calculation formula for a heparin-like activity value (U/mg) in Test Example F″-1, to give a heparin-like activity value of each composition for preventing thrombus.

[6] = heparin concentration 0.05 U/mL

Substance: λ-carrageenan
- APTT ([1]; concentration 0.5 mg/mL): 398 s
- Anti-Coagulant Activity ([1]; concentration 0.5 mg/mL): 784%
- APTT ([1]; concentration 2.5 mg/mL): 600 or more sec
- Anti-Coagulant Activity ([1]; concentration 2.5 mg/mL): 1200 or more %
- APTT ([1]; concentration 5.0 mg/mL): 600 or more sec
- Anti-Coagulant Activity ([1]; concentration 5.0 mg/mL): 1200 or more %

Substance: κ-carrageenan
- APTT ([1]; concentration 0.5 mg/mL): 99 s
- Anti-Coagulant Activity ([1]; concentration 0.5 mg/mL): 120%
- APTT ([1]; concentration 2.5 mg/mL): 491 s
- Anti-Coagulant Activity ([1]; concentration 2.5 mg/mL): 991%
- APTT ([1]; concentration 5.0 mg/mL): 600 or more sec
- Anti-Coagulant Activity ([1]; concentration 5.0 mg/mL): 1200 or more %

Substance: ι-carrageenan
- APTT ([1]; concentration 0.5 mg/mL): 162 s
- Anti-Coagulant Activity ([1]; concentration 0.5 mg/mL): 260%
- APTT ([1]; concentration 2.5 mg/mL): 600 or more sec
- Anti-Coagulant Activity ([1]; concentration 2.5 mg/mL): 1200 or more %
- APTT ([1]; concentration 5.0 mg/mL): 600 or more sec
- Anti-Coagulant Activity ([1]; concentration 5.0 mg/mL): 1200 or more %

Substance: heparin
- APTT [2, 6]: 39.6 s
- APTT ([2]; heparin concentration 0.1 U/mL): 50.9 s
- APTT ([2]; heparin concentration 0.2 U/mL): 86.4 s
- APTT ([2]; heparin concentration 0.4 U/mL): 180.2 s
- PT ([3]; heparin concentration 0.0625 U/mL): 11.6 s
- PT ([3]; heparin concentration 0.125 U/mL): 11.8 s
- PT ([3]; heparin concentration 0.25 U/mL): 12.3 s
- PT ([3]; heparin concentration 0.5 U/mL): 13.2 s
- PT ([3]; heparin concentration 1 U/mL): 18.1 s
- APTT [4, 6]: 39.6 s
- APTT ([4]; heparin concentration 0.1 U/mL): 50.9 s
- APTT ([4]; heparin concentration 0.2 U/mL): 86.4 s
- APTT ([4]; heparin concentration 0.3 U/mL): 180.2 s
- APTT [5, 6]: 39.6 s
- APTT ([5]; heparin concentration 0.1 U/mL): 50.9 s
- APTT ([5]; heparin concentration 0.2 U/mL): 86.4 s
- APTT ([5]; heparin concentration 0.3 U/mL): 180.2 s
